# Reference: BindingDB's records for patent US20230391786 (Eli Lilly, 2023)
# Biological target: Cyclic GMP-AMP synthase (Homo sapiens, UniProt Q8N884)
# Assay: In Vitro Inhibition Assay
# Experimental: In vitro inhibition assay of cGAS activity: Add a 5 μL mixture containing 10 mM Tris-Cl pH 7.5, 50 mM NaCl, 5 mM MgCl2, 1 mM DTT, 0.01% Triton X-100, 60 nM 75-bp dsDNA, […], 50 μM GTP, 10 nM of recombinant human cGAS, and serial dilutions of a test compound in DMSO to a 384-well plate and incubate at room temperature for 3 hours. Quench the reaction by the addition of 100 μL of stop solution containing 0.1% formic acid and 0.1 μM internal standard (3′3′-difluoro cGAMP). Measure the amount of cGAMP produced by RapidFire 365 mass spectrometry and evaluate inhibitory effect of a compound by plotting percent specific inhibition of cGAMP production against log concentration of the test compound.
# Chain of Cyclic GMP-AMP synthase (Q8N884 whole entry): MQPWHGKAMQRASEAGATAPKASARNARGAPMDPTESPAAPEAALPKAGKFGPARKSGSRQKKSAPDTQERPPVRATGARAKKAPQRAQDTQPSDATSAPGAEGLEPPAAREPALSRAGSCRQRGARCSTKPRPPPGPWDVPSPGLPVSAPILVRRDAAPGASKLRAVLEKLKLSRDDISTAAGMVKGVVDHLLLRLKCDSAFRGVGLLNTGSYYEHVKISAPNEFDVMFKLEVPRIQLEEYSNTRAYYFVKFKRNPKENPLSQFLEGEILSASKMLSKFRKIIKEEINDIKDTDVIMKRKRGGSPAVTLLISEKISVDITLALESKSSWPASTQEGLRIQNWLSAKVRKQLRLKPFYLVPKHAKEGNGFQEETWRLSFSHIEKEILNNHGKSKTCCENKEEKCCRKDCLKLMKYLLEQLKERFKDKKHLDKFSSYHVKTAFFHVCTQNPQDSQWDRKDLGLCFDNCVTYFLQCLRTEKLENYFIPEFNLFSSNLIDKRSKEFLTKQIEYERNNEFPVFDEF
row,IC50,Structure (SMILES)
1,83.9 nM,"O=C(CCn1cncn1)N1CCn2c(c(-c3cn[nH]c3)c3ccc(Cl)c(Cl)c32)C1 [US20230391786, Example 49]"
2,16.5 nM,"Cn1ncnc1COCC(=O)N1CCn2c(c(-c3cn[nH]c3)c3c(OCC#N)cc(Cl)c(Cl)c32)C1 [US20230391786, Example 181]"
3,96.5 nM,"OCCn1cc(-n2cc(-c3cn[nH]c3)c3ccc(Cl)cc32)nn1 [US20230391786, Example 229]"
4,62.5 nM,"NC1CCn2c1c(-c1cn[nH]c1)c1ccc(Cl)c(Cl)c12 (centres undefined) [US20230391786, Example 241]"
